Data published in doi:10.1101/2021.10.07.463234v2 (biorxiv, 2021).

molecular target: SARS-CoV-2 Mac1 (Severe acute respiratory syndrome coronavirus 2, UniProt P0DTD1); experiment: biochemical; settings: 100 µM; inhibitor

First: COc1cc2nccc(Oc3ccc(NC(=O)C4(C(=O)Nc5ccc(F)cc5)CC4)cc3)c2cc1OC [Cabozantinib (XL184, BMS-907351)]
Second: COc1cc(CNC(=O)CCCC/C=C/C(C)C)ccc1O [Capsaicin(Vanilloid)]
The “%inhibition” value of the first is higher: 25.14% for the first, 5.806% for the second.

Going from `COc1cc2nccc(Oc3ccc(NC(=O)C4(C(=O)Nc5ccc(F)cc5)CC4)cc3)c2cc1OC` [Cabozantinib malate (XL184)] to `CC(=O)Oc1ccccc1C(=O)O` [Carbasalate Calcium], the “%inhibition” value rises from 0% to 5.528%.

same assay, conditions: read-out: %inhibition

First: C#Cc1cccc(Nc2ncnc3cc(OC)c(OCCCCCCC(=O)NO)cc23)c1 [CUDC-101]
Second: CCOc1nc2cccc(C(=O)O)c2n1Cc1ccc(-c2ccccc2-c2nnn[nH]2)cc1 [Candesartan]
The inhibition at 100 µM of the first is higher: 6.86% for the first, 0% for the second.

First: CO[C@H]1C(=O)[C@]2(C)[C@@H](OC)C[C@H]3OC[C@@]3(OC(C)=O)[C@H]2[C@H](OC(=O)c2ccccc2)[C@]2(O)C[C@H](OC(=O)[C@H](O)[C@@H](NC(=O)OC(C)(C)C)c3ccccc3)C(C)=C1C2(C)C [Cabazitaxel]
Second: CC1(C)S[C@@H]2[C@H](NC(=O)C(C(=O)O)c3ccccc3)C(=O)N2[C@H]1C(=O)O (stereo partly shown) [Carbenicillin disodium]
The inhibition at 100 µM of the first is higher: 25.1% for the first, 2.9% for the second.

`C=C1CC[C@H](O)C/C1=C/C=C1\CCC[C@]2(C)[C@@H]([C@H](C)CCCC(C)(C)O)CC[C@@H]12` [Calcifediol] and `C=C1/C(=C\C=C2/CCC[C@]3(C)[C@@H]([C@H](C)/C=C/[C@@H](O)C4CC4)CC[C@@H]23)C[C@@H](O)C[C@@H]1O` [Calcipotriene] are the same in inhibition at 100 µM: 0% for the first, 0% for the second.

Going from `CC(C)(CO)[C@@H](O)C(=O)NCCC(=O)O` [Calcium D-Panthotenate] to `O=C(O)[C@H](O)[C@@H](O)[C@H](O)[C@H](O)CO` [Calcium gluconate], the inhibition at 100 µM falls from 14.2% to 0%.

First: O=C(O)C(O)[C@H](O)[C@@H](O)[C@H](O)[C@H](O)CO (stereo partly shown) [Calcium Gluceptate]
Second: C[C@@](Cc1ccc(O)c(O)c1)(NN)C(=O)O [Carbidopa]
The inhibition at 100 µM of the first is lower: 0% for the first, 24.2% for the second.

First: Nc1nc(=O)c2c([nH]1)NCC(CNc1ccc(C(=O)N[C@@H](CCC(=O)O)C(=O)O)cc1)N2C=O (stereo partly shown) [Calcium folinate]
Second: CN(C)C(=O)COC(=O)Cc1ccc(OC(=O)c2ccc(NC(=N)N)cc2)cc1 [Camostat Mesilate]
The inhibition at 100 µM of the first is lower: 0% for the first, 42.9% for the second.

`Cc1ccc([C@@H]2O[C@H](CO)[C@@H](O)[C@H](O)[C@H]2O)cc1Cc1ccc(-c2ccc(F)cc2)s1` [Canagliflozin] and `CCOc1nc2cccc(C(=O)OC(C)OC(=O)OC3CCCCC3)c2n1Cc1ccc(-c2ccccc2-c2nn[nH]n2)cc1` (stereo not shown) [Candesartan Cilexetil] are the same in inhibition at 100 µM: 0% for the first, 0% for the second.

Compared with `CSCCNc1nc(SCCC(F)(F)F)nc2c1ncn2[C@@H]1O[C@H](COP(=O)(O)OP(=O)(O)C(Cl)(Cl)P(=O)(O)O)[C@@H](O)[C@H]1O` [Cangrelor Tetrasodium], `CCCCCOC(=O)Nc1nc(=O)n([C@@H]2O[C@H](C)[C@@H](O)[C@H]2O)cc1F` [Capecitabine] is higher in inhibition at 100 µM: 0% for the first, 6.29% for the second.

Going from `C[C@H](CS)C(=O)N1CCC[C@H]1C(=O)O` [Captopril] to `CN1c2cc(O)c(N=NC(N)=O)cc2CC1S(=O)(=O)O` (stereo not shown) [Carbazochrome sodium sulfonate (AC-17)], the inhibition at 100 µM rises from 0% to 15.7%.

Compared with `C[N+](C)(C)CCOC(N)=O` [Carbachol], `CCOC(=O)n1ccn(C)c1=S` [Carbimazole] is lower in inhibition at 100 µM: 3.56% for the first, 0% for the second.

Going from `COC(=O)N/N=C/c1c[n+]([O-])c2ccccc2[n+]1[O-]` [Carbadox] to `NC(=O)N1c2ccccc2C=Cc2ccccc21` [Carbamazepine], the inhibition at 100 µM falls from 6.86% to 0%.

Going from `CN1CC(O)C2=C/C(=N/NC(N)=O)C(=O)C=C21` (stereo not shown) [Carbazochrome] to `CC1(C)[C@@H](OC(=O)CCC(=O)O)CC[C@]2(C)[C@H]3C(=O)C=C4[C@@H]5C[C@@](C)(C(=O)O)CC[C@]5(C)CC[C@@]4(C)[C@]3(C)CC[C@@H]12` [Carbenoxolone Sodium], the inhibition at 100 µM falls from 10.9% to 4.8%.
